Laboratory results published in PubChem BioAssay (NCI).
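In this assay, cells in 96-well plates receive the compound at five concentrations for 48 hours. Endpoints are linearly interpolated between the surrounding concentrations. The concentration for 50% growth inhibition is given as GI50. Definition used: TGI = concentration required for complete inhibition of growth.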

Experiments:
Assay in all cases: NCI-60 cell line screen, 48 h
[1] = tested on: 786-0 renal
[2] = tested on: CAKI-1 renal
[3] = tested on: CCRF-CEM leukemia
[4] = tested on: EKVX NSCLC
[5] = tested on: HOP-62 NSCLC
[6] = tested on: HOP-92 NSCLC
[7] = tested on: IGROV1 ovarian
[8] = tested on: OVCAR-5 ovarian
[9] = tested on: SK-MEL-5 melanoma
[10] = tested on: T-47D breast

SMILES	GI50 [1] [µM]	TGI [1] [µM]	GI50 [2] [µM]	TGI [2] [µM]	GI50 [3] [nM]	TGI [3] [µM]	GI50 [4] [µM]	TGI [4] [µM]	GI50 [5] [µM]	TGI [5] [µM]	GI50 [6] [nM]	TGI [6] [µM]	GI50 [7] [µM]	TGI [7] [µM]	GI50 [8] [µM]	TGI [8] [µM]	GI50 [9] [nM]	TGI [9] [µM]	GI50 [10] [µM]	TGI [10] [µM]
COc1cc(OCc2cccc(-c3ccc(C(O)c4nccs4)cc3)c2C)cc(OC)c1C=O (configuration not stated)	2.16	7.2	0.182	3.3	2330	19.9	2.02	6.63	3.88	18.3	2190	8.52	0.887	4.84	0.929	5.54	1110	2.4	0.401	6.38
N=C(N)C1CN(CCc2c[nH]c3ccccc23)C(=O)NC1=O (configuration not stated)	–	> 100	–	–	–	> 100	–	> 100	–	> 100	–	> 100	–	> 100	–	> 100	–	> 100	–	> 100
COc1cc(-c2oc(=O)ccc2C#Cc2ccccn2)cc(OC)c1OC	4.47	> 100	0.563	3.73	2140	> 30	8.07	> 100	2.42	> 100	2230	25.4	–	–	10.5	> 100	2090	11.2	3.46	> 41.8
CN1CCN(C2CCN(C(=O)Nc3cc(Oc4ccc(NC(=O)C5(C(=O)Nc6ccc(F)cc6)CC5)c(F)c4)ccn3)CC2)CC1	1.67	> 10	0.932	> 10	1260	> 5.7	> 1.99	> 8.76	–	> 3.92	483	> 2.54	1.1	> 10	1.58	> 10	2430	6.36	5.56	> 10
CC1=C(C(=O)Nc2ccc(F)c(Cl)c2)C(c2ccccc2O)NC(=S)N1 (configuration not stated)	> 50	> 50	45.8	> 50	–	–	–	–	> 50	> 50	> 50000	> 50	> 50	> 50	> 50	> 50	21900	> 50	> 50	> 50
CC1(C)S[C@@H]2[C@H](NC(=O)C3(N)CCCCC3)C(=O)N2[C@H]1C(=O)O	–	> 100	–	> 100	–	> 100	–	> 100	–	> 100	–	> 100	–	> 100	–	> 100	–	> 100	–	> 100
COC(=O)c1ccc2c(c1)nc(NC(=O)c1ccccc1)n2CCCc1ccccc1	4.77	> 100	3.57	> 100	1860	> 100	–	–	5.03	> 100	6000	> 100	5.01	> 100	22.6	> 100	2130	5.87	4.35	> 100
COc1ccc(C2SC(N)=Nc3c2c(C)nn3C(=O)c2ccncc2)cc1OC (configuration not stated)	–	> 10	–	> 10	–	> 10	–	> 10	–	> 10	–	> 10	–	> 10	–	> 10	–	> 10	–	> 10
COc1cccc(F)c1C(=O)c1cnc(NC2CCN(S(C)(=O)=O)CC2)nc1N	6.06	> 25	3.4	> 22.9	2510	> 25	–	–	4.64	23	1050	9.15	3.9	> 25	3.59	> 25	2060	> 23.3	5.22	24.4
Cn1c(I)c(C#CCO[Si](C)(C)C(C)(C)C)c(=O)[nH]c1=O	18.6	33.2	3.29	12.6	1920	4.17	17.5	32.8	> 44.1	> 59	2140	4.67	17.2	32.7	18	33	17100	31.3	2.92	15
COc1cc(Nc2ncccc2C(=O)NCc2cn(Cc3cccc(Oc4ccccc4)c3)nn2)cc(OC)c1	6.73	> 100	6.3	> 100	4190	> 100	6.33	> 100	6.31	> 100	46700	> 100	> 100	> 100	> 100	> 100	3110	> 100	4.58	> 100
CC(C)NC(=O)OCc1c(COC(=O)NC(C)C)c(-c2cc[n+](COC(=O)C3CC3)cc2)n2c1CCC2	–	> 100	–	> 100	–	> 100	–	> 100	–	> 100	–	> 100	–	> 100	–	> 100	–	> 100	–	> 100
CC(=O)N=C1N(/C=C2\C(=O)Oc3ccccc3C2=O)C(=O)/C(=C/c2cccc(Cl)c2Cl)N1C	–	> 100	–	65.8	–	> 100	–	> 100	–	54.4	–	9.38	–	> 100	–	> 100	–	32.2	–	> 100
O=C(Nc1ccc2ncccc2c1)Nc1ccc2ncccc2c1	–	> 100	–	> 100	–	> 100	–	> 100	–	> 100	–	> 100	–	> 100	–	> 100	–	> 100	–	> 100
C(=NCCN1CCOCC1)=NC1CCCCC1	–	> 100	–	> 100	–	–	–	> 100	–	> 100	–	> 100	–	> 100	–	> 100	–	> 100	–	> 100
C=C1C(=O)OC2CC(C)C(C(CC(C)=O)OC(C)=O)=CCC12 (configuration not stated)	–	9.65	–	8.05	–	> 35	–	26.6	–	46.9	–	21.2	–	29	–	31.6	–	32	–	42
